These results are taken from BindingDB's records for doi:10.1021/jm00001a002 (National Institutes of Health, 1995).

pKi: −log10 of the molar value.

The experiment concerns the target Sigma non-opioid intracellular receptor 1 (Cavia porcellus) (UniProt Q60492). The experiment is described as follows: In vitro binding affinity towards Sigma receptor type 1 was determined by measuring its ability to displace [3H](+)-pentazocine from guinea pig brain membrane.

Sequence of Sigma non-opioid intracellular receptor 1 (Cavia porcellus) (Q60492 whole entry, looked up): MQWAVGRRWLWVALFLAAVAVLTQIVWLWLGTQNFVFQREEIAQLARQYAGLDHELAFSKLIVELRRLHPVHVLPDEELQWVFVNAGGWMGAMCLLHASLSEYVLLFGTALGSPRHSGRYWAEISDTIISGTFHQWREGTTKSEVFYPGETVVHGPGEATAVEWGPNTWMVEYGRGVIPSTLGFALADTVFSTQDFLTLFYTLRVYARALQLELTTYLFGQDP

Molecule `CN1CCC=C(c2nsnc2SCCF)C1` showed a pKi of 7.66.
Then `CN1CCC=C(c2nsnc2SCCCF)C1`, with 7.21.
